Row | SMILES | melting point
1 | Cc1ccc2cccc(C)c2n1 | 27 °C
2 | c1cc2c3c(ccc4c3c1CCC4)CCC2 | 133 °C
3 | Cc1[nH]nc(-c2ccccc2)c1C | 104 °C
4 | O=C(O)c1cccc(N2CCOCC2)n1 | 127 to 129 °C
5 | Cc1ccc(C#N)c(=O)[nH]1 | 293 to 295 °C
6 | O=[N+]([O-])c1ccsc1Cl | 51 to 52 °C
7 | O=C(OCCC(OC(=O)c1ccccc1)c1ccccc1)c1ccccc1 (centres undefined) | 51 °C
8 | FC(F)(F)C(F)(F)C(F)(F)C(F)(F)I | -68 °C
9 | CC(C)(C)N(NC(=O)c1ccccc1)C(=O)c1c(F)cccc1F | 194 °C
10 | Cc1nn(C)c(Cl)c1N=Nc1ccccc1 | 44 to 46 °C
11 | O=C(c1ccc([N+](=O)[O-])cc1)c1noc(-c2ccc([N+](=O)[O-])cc2)c1S(=O)(=O)c1ccccc1 | 133 °C
12 | CC(=O)c1c2ccccc2cc2ccccc12 | 74 °C
13 | CCOC(=O)c1cnc2cc(OCC(C)C)c(OCC(C)C)cc2c1O | 290 °C
14 | O=C(COC(=O)c1ccccc1)c1ccccc1 | 119 °C
15 | C=C(C)c1ccc(C)cc1 | -20 °C
16 | CC(=O)NCCc1ccccc1 | 48 to 52 °C
17 | CCNCC | -50 °C
18 | CCOC(=O)c1cc2c(=O)oc3ccccc3c2n(C)c1=O | 202 to 203 °C
19 | C=CC1CC2C=CC1C2 (centres undefined) | -80 °C
20 | Oc1ccc(/C=C/c2ccccc2)cc1 | 185 to 189 °C
21 | Cc1ccccc1N1CSc2nnc(-c3cccc([N+](=O)[O-])c3)n2C1 | 239 to 240 °C
22 | N#CSCC(=O)c1ccc(Cl)cc1 | 135 to 136 °C
23 | CSc1nc2ccccc2c(=O)n1-c1ccccc1 | 123 to 125 °C
24 | CC(O)Cn1cnc2c1c(=O)n(C)c(=O)n2C (centres undefined) | 136 °C
25 | Cc1c(Br)cc(C(=O)Cl)c(C)c1C | 60 to 62 °C
26 | C#CC1(O)CCC2(C)C(CCC3C4CCC(=O)C4(C)CCC32)C1 (centres undefined) | 237 to 238 °C

Row | SMILES | melting point
27 | O=Cc1cc([N+](=O)[O-])ccc1Cl | 79 °C
28 | O=C(O)C(Cc1ccccc1)C(=O)O | 121 °C
29 | Cc1ccc(C#N)cc1C | 67 to 69 °C
30 | CN(C)c1ccc(C(O)(c2ccccc2)c2ccc(N(C)C)cc2)cc1 | 113 °C
31 | O=c1ncn2nc(Sc3ccccc3)ccc2c1-c1c(Cl)cccc1Cl | 262 to 265 °C
32 | CC1CCCCN1 (centres undefined) | -5 to -4 °C
33 | Cc1ccc(O)c(C(=O)CC(=O)c2ccccc2)c1 | 92 to 94 °C
34 | Cc1cc(N)c([N+](=O)[O-])cc1C | 141 °C
35 | C=CC[C@H](NC(=O)OCC1c2ccccc2-c2ccccc21)C(=O)O | 137 °C
36 | COC(=O)C1(S(=O)(=O)c2ccc(Cl)cc2)CC1 | 116 °C
37 | CC(C)C(=O)OCC(C)(C)C(O)C(C)C (centres undefined) | -50 °C
38 | CC(C)(C)OC(=O)N1CCC2(CC1)NC(=O)c1cc(Br)ccc1O2 | 226 to 227 °C
39 | C1CCN2CC3CC(CN4CCCCC34)C2C1 (centres undefined) | 30.5 °C
40 | NC(=S)Nc1ccccc1Cl | 146 °C
41 | COc1cccc(O)c1C=O | 71 °C
42 | CCCCCCCCCOc1ccc(N)cc1 | 39 °C
43 | CC(CC(C)C(=O)O)C(=O)O (centres undefined) | 104 to 108 °C
44 | O=C1CCCCCCCCCCC(=O)OCCO1 | 18 °C
45 | COc1cccc(C=C(C(=O)O)C(=Cc2cccc(OC)c2)C(=O)O)c1 | 182 °C
46 | CCN(CC)Cc1c(N)c2ccccc2oc1=O | 133 °C
47 | Cc1cc(Cl)[nH]n1 | 118 °C
48 | CC(=O)Nc1ccc(-c2ccc(/N=N/c3ccccc3)cc2)cc1 | 236 to 237 °C
49 | CCCCI | -103 °C
50 | CSSC | -85 °C
51 | O=C1NC(=O)C(=Cc2ccc(-c3ccc(Br)cc3)o2)C(=O)N1 | 255 °C
52 | CCOc1nc(F)cc2nc(S(=O)(=O)Nc3c(Cl)cccc3C(=O)OC)nn12 | 217 °C

Row | SMILES | melting point
53 | CC(C)(C)NCC(O)COc1cc(Cl)ccc1Cl (centres undefined) | 82 °C
54 | CSc1nc(=O)[nH]c2c1CCCC2 | 264 to 266 °C
55 | CC(CCC(=O)O)C1CCC2C3CC(O)C4=CC(O)CCC4(C)C3CCC12C (centres undefined) | 200 to 201 °C
56 | CC1(C)CC(O)CC(C)(C)N1 | 131 °C
57 | CCCCCCCCCCCCCCCCS(=O)(=O)c1ccc(N)cc1 | 115 to 117 °C
58 | COc1ccc(C(=CCC(=O)O)C(C)(C)C(=O)O)cc1 | 137 °C
59 | CSC[C@H](N)C(=O)O | 240 °C
60 | Cn1cncc1C(=O)NN | 186 to 187 °C
61 | S=C1NCCCCN1 | 178 to 180 °C
62 | Nc1cccc([N+](=O)[O-])c1N | 158 °C
63 | COC(=O)c1cccc(CN2CCOCC2)c1 | 46 to 47 °C
64 | CC1=C(C(=O)OC(C)(C)C)C(c2ccc3c(c2)OCO3)NC(=O)N1 (centres undefined) | 210 °C
65 | N#CCCOc1ccc(Cl)cc1 | 45 to 47 °C
66 | O=C(c1ccc2ccccc2c1)c1noc(-c2cccc3ccccc23)c1S(=O)(=O)c1ccccc1 | 115 °C
67 | OCc1cc(O)ccc1O | 100 °C
68 | Nc1ccccc1-c1cccnc1 | 72 °C
69 | CC(=O)OCC(OC(C)=O)C(OC(C)=O)C(OC(C)=O)C(OC(C)=O)C(N)=O (centres undefined) | 187 to 188 °C
70 | O=C(CCl)Nc1ccccc1Cl | 70 to 73 °C
71 | CN(C)c1ccc(CNC2=CC(=O)c3ccccc3C2=O)cc1 | 165 to 167 °C
72 | CC(=O)C(C#N)(CC(=O)c1ccccc1)c1ccccc1 (centres undefined) | 94 °C
73 | O=C(c1ccccc1)c1noc(-c2ccc3ccccc3c2)c1S(=O)(=O)c1ccccc1 | 178 °C
74 | Nc1nc(=O)[nH]cc1Br | 240 to 243 °C
75 | COc1ccc(/C=C(\C(N)=O)c2nc3ccccc3s2)cc1 | 168 °C
76 | CCN(CC)C(=O)CSc1ccc(Cl)nn1 | 98 °C
77 | O=C1CCC2C3CCC(=O)C3C12 (centres undefined) | 65 to 69 °C
78 | C=C(C)CCCCCCCCCC | -31 °C

Row | SMILES | melting point
79 | C#CCCCCCCCCCCCCCCCCCC | 36 °C
80 | N#Cc1ccc(F)cc1[N+](=O)[O-] | 71 to 73 °C
81 | CC(C(=O)O)P(=O)(O)O (centres undefined) | 120 °C
82 | CCCSc1sc(C(=O)OCC)c2c1C(=O)CCC2 | 136 to 139 °C
83 | COc1ccc(C(O)c2ccccc2)cc1 (centres undefined) | 67 °C
84 | CCOC(=O)CNc1cc(Cl)c([N+](=O)[O-])cc1[N+](=O)[O-] | 146 °C
85 | CC12CCC(=O)C(Cl)=C1CCC1C2CCC2(C)C(O)CCC12 (centres undefined) | 189 °C
86 | C=C(NC(C)=O)C(=O)OC | 50 °C
87 | C#CC1(O)CCC2C3CC=C4C=C(C(C)(C)C(=O)O)CCC4(C)C3CCC21C (centres undefined) | 257 to 260 °C
88 | N#Cc1nccc2ccccc12 | 89 °C
89 | Cc1ccc(C#N)c(F)c1 | 53 °C
90 | Nc1c(C=Cc2ccccc2)ccc2c1C(=O)c1ccccc1C2=O | 214 °C
91 | COC(=O)c1scc(S(C)(=O)=O)c1-n1cccc1 | 124 to 126 °C
92 | OCc1ccc(Cn2cncn2)cc1 | 68 to 70 °C
93 | Cc1ccc(S(=O)(=O)OCC#N)cc1 | 50 to 51 °C
94 | Cc1c(C)c(N)c(C)c(C)c1N | 150 to 153 °C
95 | O=C(O)c1cc(Cl)nc(Cl)c1 | 210 to 211 °C
96 | Cc1ccc(C(=O)O)cc1F | 170 to 175 °C
97 | CCOc1ccc(NS(=O)(=O)c2ccc(N)cc2)nn1 | 183 °C
98 | CCCCCCCCCI | -20 °C
99 | CCCCCCCCCCC#CC#CCCCCCCC(=O)O | 51 to 52 °C
100 | CCOC(=O)c1sc2sc(C#N)c(C)c2c1C | 155 to 157 °C
101 | Nc1nc(-c2ccc(Cl)cc2)cs1 | 169 °C
102 | O=S(=O)(c1ccccc1)n1cc(CO)c2ccccc21 | 90 to 91 °C
103 | CC(=O)C(Cl)C(C)=O | -15 °C
104 | O=c1[nH]c2ccccc2[nH]c1=O | 300 °C

Row | SMILES | melting point
105 | CCOC(=O)c1cc(-c2cccs2)on1 | 48 to 51 °C
106 | NC(=O)NN=CC(=O)c1cc(C(=O)C=NNC(N)=O)cc(C(=O)C=NNC(N)=O)c1 | > 300 °C
107 | COC(=O)CCC(C)C1CCC2=C3CCC4CC(OC(C)=O)CCC4(C)C3CC(OC(C)=O)C21C (centres undefined) | 234 °C
108 | CN(CCCN1c2ccccc2CCc2ccccc21)CC(=O)c1ccc(Cl)cc1 | 105 °C
109 | N#CC(C#N)=c1c(F)c(F)c(=C(C#N)C#N)c(F)c1F | 291 °C
110 | C#CC1=C(C=NNc2ccc([N+](=O)[O-])cc2[N+](=O)[O-])CCCC1 | 190 °C
111 | CC1C(=O)OC2CCN3CC=C(COC(=O)C(C)(O)C1(C)O)C23 (centres undefined) | 197 to 204 °C
112 | CC(C)(O)C(Br)(Br)Br | 169 °C
113 | CC1=C(C(=O)OCC(C)C)C(c2ccccc2)NC(=S)N1 (centres undefined) | 153 °C
114 | Nc1ccc2c(C(F)(F)F)cc(=O)oc2c1 | 223 °C
115 | CC(C)(C)OC(=O)n1cc(C(=O)O)c2cc(Br)ccc21 | 206 to 209 °C
116 | C(#Cc1ccc(/N=C/c2ccccc2)cc1)c1ccc(/N=C/c2ccccc2)cc1 | 207 °C
117 | Nc1ccc2cc[nH]c2c1 | 73 °C
118 | O=C(c1ccccc1)N1CCNCC1 | 63 to 64 °C
119 | Clc1cc2c(cc1Cl)-c1cc(Cl)c(Cl)cc1-2 | 237 to 240 °C
120 | CNCc1ccc(-n2ccnc2)cc1 | 67 to 69 °C
121 | Cc1ccc(C(O)(c2ccc(C)cc2)C2(C)CCC(C(=O)O)C(C)(C)O2)cc1 (centres undefined) | 152 °C
122 | CCC(=O)OC1(C(=O)CCl)C(C)CC2C3CCC4=CC(=O)C=CC4(C)C3(F)C(O)CC21C (centres undefined) | 196 °C
123 | CN1C2CCC1C(C(=O)O)C(O)C2 (centres undefined) | 205 °C
124 | CN1C(=O)Cc2cc(Br)ccc21 | 132 to 133 °C
125 | CO[Si](OC)(OC)c1ccccc1 | -25 °C
126 | O=C1Nc2ccccc2/C1=C/c1ccccc1[N+](=O)[O-] | 82 °C
127 | COC(=O)c1sc(C(F)(F)F)c(-c2ccccc2)c1S(=O)(=O)Cl | 74 to 75 °C
128 | COc1cc2c(cc1OC)C(CC#N)NCC2 (centres undefined) | 110 to 114 °C
129 | CN1CCOc2cc(Br)ccc21 | 47 to 49 °C
